This note sets out measurements from patent publication US20250018029A1, “METHODS TO ALTER THE TUMOR MICROENVIRONMENT FOR EFFECTIVE CANCER IMMUNOTHERAPY” (PDS BIOTECHNOLOGY CORPORATION, priority 2016, published 2025).

No end group written: not given here. *: point of attachment. Palmitoyl = CCCCCCCCCCCCCCCC(=O)*

Test [1] relates to Bone marrow derived dendritic cells (BMDC). In words: DQ-OVA uptake and processing by bone marrow derived dendritic cells (flow cytometry). The test is classed as cell-based, mouse. To be noted: for uptake and processing of DQ-OVA by DC (fluorescence): 37° C., versus DQ-OVA in media alone. As to the method: FIG. 1 provides a graph showing that DOTAP enhancement of antigen processing is specific for dendritic cells. Bone marrow derived dendritic cells were incubated with DQ-OVA in the presence of various concentrations of DOTAP as shown. In addition, a mouse epithelial cell line, TC1, was treated in an identical fashion.
FIG. 2 provides fluorescence readings for receptor mediated uptake. R-DOTAP nanoparticles, but not MPL stimulate uptake and processing by DC within 10 minutes. Mouse bone marrow DC were incubated in the presence of fluorescent DQ-OVA for one hour at either 37° C. or 4° C./azide in the presence of 25 uM DOTAP nanoparticles, 10 ug/ml MPL or media alone, and analyzed by flow cytometry. On the presented density plot, the y-axis represents the amount of green fluorescence which results from uptake and processing of the protein, while the x-axis represents the amount of red fluorescence resulting from concentration in endosomal vesicles.
To determine the effects of cationic lipids on antigen uptake and processing by dendritic cells, a fluorescent ovalbumin protein called DQ-OVA was used. DQ-OVA is non-fluorescent when intact, but emits both red and green fluorescence when the protein is degraded. Dendritic cells were grown from mouse bone marrow by culturing for 8 days in GMCSF+IL-4 (hereafter referred to as BMDC). BMDC were incubated at 37° C. or 4° C. for 1 hour with DQ-OVA alone, or DQ-OVA mixed with different concentrations of the cationic lipid R-DOTAP. The cells were then washed, fixed, and stained with fluorescent antibodies to CD11c, a marker for dendritic cells. Cells were then analyzed on an LSRII flow cytometer in both red and green fluorescent channels.
To determine whether non-cationic lipid adjuvants could mediate the same effect as DOTAP, BMDC were incubated with DQ-OVA in media alone or with DOTAP as described for FIG. 1. In addition, BMDC were incubated under identical conditions with the potent lipid adjuvant […] (MPL).
(In general: A flow cytometer gives signals particle by particle.)

The subject of test [2] is OT1 splenocytes (TCR transgenic T cells specific for SIINFEKL). In words: Cross-presentation of OVA by DC to MHC class I restricted OT-1 T cells (3H-thymidine uptake). The test is classed as cell-based, mouse. To be noted: whole OVA protein, 25 uM lipid, 37° C., versus OVA without cationic lipid. As to the method:
FIG. 3: R-DOTAP enhancement of antigen processing results in enhancement of cross-presentation to MHC class I restricted T cells. Bone marrow derived DC were incubated in the presence of various concentrations of whole OVA protein and 25 uM DOTAP or DOTMA for 30 min at 37° C. or 4° C.
In order to verify that the cationic lipid facilitated uptake of antigen translates into enhanced antigen presentation on MHC class I (cross presentation), T cells from a TCR transgenic mouse (OT-1) were utilized in which all T cells are specific for an internal peptide of OVA. These T-cells will only proliferate if presented with DCs which have processed OVA and presented an OVA peptide on MHC class I molecules. Thus, this represents a stringent assay for cross-presentation. BMDC were incubated with different concentrations of the whole OVA protein in the presence or absence of two cationic lipids, either DOTAP or DOTMA for 1 hour at 37° C. The DCs were then washed, fixed and added to the OVA peptide specific T-cells. […] This response was dose dependent with respect to the OVA concentration, and was even apparent when DC were incubated with OVA at 4° C.

Test [3] relates to HPV16-specific CD8+ T-cells. Put plainly: HPV16-specific CD8+ T-cell induction after vaccination, ELISPOT of splenocytes. The format is in vivo, C57 black mice. To be noted: given with KF18 HPV peptide, vaccinated Day 0 and Day 7, splenocytes Day 14, stimulated with RAHYNIVTF
From the text:
Effect of HPV16-E7, R-DOTAP/HPV16-E7, S-DOTAP/HPV16-E7 and Alum/MPL/HPV16-E7 vaccination on HPV16-specific CD8+ T-cell induction by ELISpot. The HPV16 E7 peptide used in the vaccine (SEQ ID NO: 2) is labelled KF18.
C57 black mice were vaccinated with various formulations: • Group 1: KF18 HPV peptide • Group 2: KF18 HPV peptide+R-DOTAP liposomes • Group 3: KF18 HPV peptide+S-DOTAP liposomes • Group 4: KF18 peptide+MPL/Alum adjuvant • *For each of the groups above, the KF18 HPV peptide corresponds to Palmitoyl-KSS-[…] (SEQ ID NO: 2)
5 mice per group were injected with the various formulations. The mice were vaccinated on Day 0 and Day 7 and sacrificed on Day 14. The splenocytes were removed and ELISPOT studies performed. The splenocytes were stimulated with the peptide […] (SEQ ID NO: 3), the HPV16 CD8+ T-cell epitope peptide recognized by the C57 mice.

Test [4] has as its system HPV-positive TC-1 tumors. In words: Regression of established TC-1 tumors, vaccination Days 12 and 19. The test is classed as in vivo, C57 mice. How it is done:
Tumors were implanted on Day 0 and the mice vaccinated on Days 12 and 19. Tumor volumes were measured using calipers. The naïve mice group are tumor bearing mice that remained untreated. […] P<0.01.
C57 mice were divided into the following groups of 8 mice per group: • Group 1: R-DOTAP+KF18 (SEQ ID NO: 2) • Group 2: GM-CSF+KF18 (SEQ ID NO: 2) • Group 3: R-DOTAP • Group 4: GM-CSF • Group 5: KF18 (SEQ ID NO: 2) • Group 6: Naïve mice (tumor bearing and untreated). • 1×10E^5 TC-1 tumor cells were injected into the flank of the mice on day 0. The various formulations were administered on Days 12 and 19 after tumor implantation.
The third group of animals who were treated with either R-DOTAP alone or GM-CSF alone without antigen, or left untreated (Treg/CD8+ ratio >30) had tumor volumes of 300-700 mm^3.

Test [5] concerns CFSE labeled lymphocytes in popliteal LN. In words: Lymph node homing of CFSE labeled adoptively transferred spleen cells, with or without pertussis toxin. As to conditions: after 16 h. The format is in vivo, B6 mice. From the text: The primary objective of the current experiment was to understand if T-cell infiltration induced by R-DOTAP is chemokine dependent. We utilized 5 mice to perform the study, and visualized the homing of CFSE labeled adoptively transferred cells. The study included a population of cells that had been treated in vitro with pertussis toxin to inactivate chemokine receptors. Pertussis toxin-treated and untreated cells were labeled with two different concentrations of CFSE so that they could be distinguished by flow cytometry.
Spleen cells were prepared from a single B6 mouse and divided in half. Half of the cells were treated with Pertussis toxin 100 ng/ml for 1 hour at 37° C. and washed. The two cell populations were then labeled with CFSE at two different concentrations so they could be distinguished by flow cytometry, and mixed together. The mix (10e7 cells) was injected i.v. into the tail vein of 5 B6 mice. The mice were then anesthetized and injected in the footpad with either sucrose (right footpad) or R-DOTAP (left footpad, 50 ul, 600 nmoles).
After 16 h, the mice were sacrificed and the popliteal LN and spleens harvested. The total cells recovered from left and right nodes from each mouse were counted.

Test [6] concerns T regulatory cells (CD45+CD3+CD4+CD25+Foxp3+) in tumor. In words: Regulatory T cell population within TC-1 tumors (flow cytometry). The format is in vivo, C57 mice. As to conditions: Day 19, within 1 week of vaccination (Day 12). As to the method:
FIG. 6: provides a graph showing that R-DOTAP and R-DOTAP+antigen uniquely reduce the population of regulatory T cells within the tumors after vaccination. 1×10^5 cells implanted subcutaneously on the right side of the abdomen of female B6 mice on day 0 and were vaccinated on day 12 and on day 19 post Tumor implant. T regulatory cells (CD45+CD3+CD4+CD25+Foxp3+) cells infiltrated into tumors on day 19. The reduction is calculated as the ratio of total T reg cells in tumor/average T reg cell in tumor and normalized to T reg cells in naïve mouse. Data represents mean±SEM of 4-5 mice in each group. * Statistically significant R-DOTAP+antigen compared to all other groups (other than R-DOTAP only). P<0.01.
C57 mice were divided into the following groups of 8 mice per group: • Group 1: R-DOTAP+KF18 (SEQ ID NO: 2) • Group 2: GM-CSF+KF18 (SEQ ID NO: 2) • Group 3: R-DOTAP • Group 4: GM-CSF • Group 5: KF18 (SEQ ID NO: 2) • Group 6: Naïve mice (tumor bearing and untreated). • 1×10E^5 TC-1 tumor cells were injected into the flank of the mice on day 0. The various formulations were administered on Days 12 and 19 after tumor implantation. […]

Test [7] concerns HPV16-positive TC-1 tumors. Put plainly: Regression of established TC-1 tumors, R- versus S-DOTAP, administered Day 6. To be noted: 1×10E^5 TC-1 cells day 0, administered on Day 6. The test is classed as in vivo, mice. How it is done:
Effect of R-DOTAP (solid squares), R-DOTAP/HPV16-E7 (clear squares) and S-DOTAP/HPV16-E7 (solid circles) vaccination on regression of established HPV16-positive TC-1 tumors. The HPV16 E7 peptide used in the vaccine (SEQ ID NO: 2) is labelled KF18. Tumor volumes were measured using calipers.
R-DOTAP only, R-DOTAP/HPV16 E7 (SEQ ID NO: 2) and S-DOTAP/HPV16 E7 (SEQ ID NO: 2) were administered on Day 6 after tumor implantation.

For test [8], the system named is T-cells and total lymphocytes in popliteal lymph nodes. In words: T-cell and lymphocyte infiltration into draining lymph nodes after foot pad injection. The test is classed as in vivo, mice. From the text: FIG. 10 provides a graph showing that R-DOTAP injection induces the migration of lymphocytes including T-lymphocytes into the draining lymph nodes. […] R-DOTAP injection is represented by striped bars, and the control is represented by shaded bars.
To better understand the ability of T-cell activating cationic lipids such as R-DOTAP to promote the induction of the effector CD8+ T-cells, which are also critical in altering the tumor's microenvironment, the impact of R-DOTAP vaccination on B and T-cells was studied. 12 mM R-DOTAP or sucrose as control were injected into the right and left foot pad respectively of mice and the influx of T-cells and total lymphocytes into the draining lymph nodes were quantified by flow cytometry. In this experiment, 15 hours after vaccination the popliteal lymph nodes were removed and analysis performed. […] Five mice were used per study.

On to `CCCCCCCC/C=C\CCCCCCCC(=O)OCC(C[N+](C)(C)C)OC(=O)CCCCCCC/C=C\CCCCCCCC` (stereo not shown) [DOTAP, 1,2-dioleoyl-3-trimethylammonium propane], for which the “uptake of DQ-OVA by DC at 4° C.” value in test [1] (BMDC with DQ-OVA, 1 hour, 4° C.) is reported as “Significant uptake”. The “uptake and processing of DQ-OVA by DC (fluorescence)” value (from here on “uptake and processing of DQ-OVA”) in test [1] (BMDC with DQ-OVA, 1 hour) is “significant increase of fluorescence”. In test [1] (concentration dependent effect in BMDC), the “concentration showing the greatest effect on DQ-OVA uptake” value is 50 µM. Also, the “cross-presentation of OVA antigen by DC to CD8+ T cells” value in test [2] is recorded as “much more efficiently”.

Take “Monophorphoryl lipid-A [MPL, reference compound]”: the “uptake and processing of DQ-OVA” value in test [1] (BMDC with DQ-OVA, 1 hour) is listed as “no such enhancement”. The “HPV-specific CD8+ T-cell response (ELISPOT)” value in test [3] is “significantly lower CD8+ T-cell response compared to R-DOTAP”.

In the case of “Palmitoyl-KSS-GQAEPDRAHYNIVTF (Palmitoyl-KSSGQAEPDRAHYNIVTF) [KF18]”, the tumor volume entry in test [4] (vaccinated Days 12 and 19, Day 26) was “about 200 mm^3”. Moreover, the “tumor regression / elimination” value in test [4] (vaccinated Days 12 and 19, by Day 26) is “did not induce any tumor regression but rather inhibited tumor growth”.

Turning to `CCCCCCCC/C=C\CCCCCCCC(=O)OCC(C[N+](C)(C)C)OC(=O)CCCCCCC/C=C\CCCCCCCC` (stereo not shown) [R-DOTAP, 1,2-dioleoyl-3-trimethylammonium propane], the “time within which uptake and processing by DC is stimulated” value in test [1] (25 uM DOTAP nanoparticles, FIG. 2 legend) was ≤ 10 min. In addition, the “uptake and processing of DQ-OVA” value in test [1] (BMDC with DQ-OVA, 1 hour) is on record as “greatly enhanced”. Besides, the “infiltration of pertussis toxin treated CFSE labeled cells into the lymph node” value in test [5] (cells treated with Pertussis toxin 100 ng/ml) is recorded as “did not occur”. Moreover, the “infiltration of transferred CFSE labeled lymphocytes into the lymph node” value in test [5] (untreated cells, footpad 50 ul, 600 nmoles) is “infiltrated the lymph node”. In test [3], the “HPV-specific CD8+ T-cell response (ELISPOT)” value is “effective in inducing strong HPV-specific CD8+ T-cell responses”. For the same compound, the “reduction in the Treg population within the tumors” value in test [6] was “about 20%”. In addition, the “anti-tumor effect on established TC-1 tumors” value in test [7] is reported as “lack of regression or inhibition of growth”. Further, the “infiltration of T-cells into the draining lymph node” value in test [8] (12 mM, foot pad, 15 hours after vaccination, sucrose as control) is “significant infiltration of T-cells into the lymph node”. Further, the “lymphocyte infiltration into the lymph nodes over time” value in test [8] (5 hours, 16 hours, 3 days and 4 days) was “increase over the 4-day period”.

Turning to `CCCCCCCC/C=C\CCCCCCCC(=O)OCC(C[N+](C)(C)C)OC(=O)CCCCCCC/C=C\CCCCCCCC` (stereo not shown) [S-DOTAP, 1,2-dioleoyl-3-trimethylammonium propane], in test [1] (BMDC with DQ-OVA, 1 hour), the “uptake and processing of DQ-OVA” value is listed as “no difference”. Moreover, the “HPV-specific CD8+ T-cell response (ELISPOT)” value in test [3] is on record as “did not result in an enhanced CD8+ T-cell response beyond what was seen with the peptide alone”.
